The record followed here is patent US20250177363A1, “SUBSTITUTED IMIDAZOPYRIDINYL COMPOUNDS USEFUL AS INHIBITORS OF TLR9” (Bristol-Myers Squibb Company, priority 2022, published 2025).

What all share (type): cell-based
The target in assay [1] is T1, human TLR9 (Homo sapiens, UniProt Q9NR96).
T1 construct: host or cells: HEK-Blue cells
T1 sequence (Q9NR96 26-1032): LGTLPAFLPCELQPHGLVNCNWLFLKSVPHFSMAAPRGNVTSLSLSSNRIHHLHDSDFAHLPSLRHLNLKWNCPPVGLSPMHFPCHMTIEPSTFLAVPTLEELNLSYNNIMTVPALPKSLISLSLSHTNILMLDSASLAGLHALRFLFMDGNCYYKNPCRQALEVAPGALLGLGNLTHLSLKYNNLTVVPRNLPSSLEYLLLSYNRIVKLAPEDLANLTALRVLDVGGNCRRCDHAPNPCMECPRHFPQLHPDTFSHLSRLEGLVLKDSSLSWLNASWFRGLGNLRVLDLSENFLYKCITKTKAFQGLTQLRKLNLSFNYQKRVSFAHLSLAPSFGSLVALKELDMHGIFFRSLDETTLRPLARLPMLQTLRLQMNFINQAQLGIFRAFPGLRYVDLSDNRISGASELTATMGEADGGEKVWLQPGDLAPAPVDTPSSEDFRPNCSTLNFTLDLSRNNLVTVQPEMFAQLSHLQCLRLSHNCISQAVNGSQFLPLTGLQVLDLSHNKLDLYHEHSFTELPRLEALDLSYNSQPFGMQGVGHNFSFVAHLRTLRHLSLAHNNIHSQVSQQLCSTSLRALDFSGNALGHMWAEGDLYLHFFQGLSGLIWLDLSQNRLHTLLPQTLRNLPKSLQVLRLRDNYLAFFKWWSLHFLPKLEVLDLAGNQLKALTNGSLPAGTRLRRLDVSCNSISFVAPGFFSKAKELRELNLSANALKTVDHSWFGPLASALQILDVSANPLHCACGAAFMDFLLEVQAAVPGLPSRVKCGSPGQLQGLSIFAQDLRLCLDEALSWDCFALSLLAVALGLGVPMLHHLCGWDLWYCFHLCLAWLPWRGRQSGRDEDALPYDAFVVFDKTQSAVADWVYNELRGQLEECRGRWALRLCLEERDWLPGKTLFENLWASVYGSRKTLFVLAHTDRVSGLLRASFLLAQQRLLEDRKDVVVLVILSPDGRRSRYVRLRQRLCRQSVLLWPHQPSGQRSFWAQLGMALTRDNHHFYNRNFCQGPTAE
As to the kind of experiment: TLR9 inhibition reporter assay (HEK-Blue, SEAP). Conditions: HEK-Blue cells overexpressing human TLR9, ligand ODN2006 200 nM, 22 hour incubation. The gist of the method: (§1)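 HEK-Blue cells expressing human TLR7, TLR8 or TLR9 with NF-κB/AP-1-driven SEAP reporter; compounds 0.85 nM–50 μM, pre-treated 60 min. Stimulation: gardiquimod 2.5 μM (TLR7), R848 14.25 μM (TLR8), ODN2006 200 nM (TLR9); SEAP read after 22 h at 37 °C. Percent inhibition normalized between agonist+DMSO and known-inhibitor wells.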
A general note: A reporter such as luciferase makes a cellular process visible.

The target of assay [2] is T2, human TLR7 (Homo sapiens, UniProt Q9NYK1).
T2 construct: host or cells: HEK-Blue cells
T2 sequence (Q9NYK1 27-1049): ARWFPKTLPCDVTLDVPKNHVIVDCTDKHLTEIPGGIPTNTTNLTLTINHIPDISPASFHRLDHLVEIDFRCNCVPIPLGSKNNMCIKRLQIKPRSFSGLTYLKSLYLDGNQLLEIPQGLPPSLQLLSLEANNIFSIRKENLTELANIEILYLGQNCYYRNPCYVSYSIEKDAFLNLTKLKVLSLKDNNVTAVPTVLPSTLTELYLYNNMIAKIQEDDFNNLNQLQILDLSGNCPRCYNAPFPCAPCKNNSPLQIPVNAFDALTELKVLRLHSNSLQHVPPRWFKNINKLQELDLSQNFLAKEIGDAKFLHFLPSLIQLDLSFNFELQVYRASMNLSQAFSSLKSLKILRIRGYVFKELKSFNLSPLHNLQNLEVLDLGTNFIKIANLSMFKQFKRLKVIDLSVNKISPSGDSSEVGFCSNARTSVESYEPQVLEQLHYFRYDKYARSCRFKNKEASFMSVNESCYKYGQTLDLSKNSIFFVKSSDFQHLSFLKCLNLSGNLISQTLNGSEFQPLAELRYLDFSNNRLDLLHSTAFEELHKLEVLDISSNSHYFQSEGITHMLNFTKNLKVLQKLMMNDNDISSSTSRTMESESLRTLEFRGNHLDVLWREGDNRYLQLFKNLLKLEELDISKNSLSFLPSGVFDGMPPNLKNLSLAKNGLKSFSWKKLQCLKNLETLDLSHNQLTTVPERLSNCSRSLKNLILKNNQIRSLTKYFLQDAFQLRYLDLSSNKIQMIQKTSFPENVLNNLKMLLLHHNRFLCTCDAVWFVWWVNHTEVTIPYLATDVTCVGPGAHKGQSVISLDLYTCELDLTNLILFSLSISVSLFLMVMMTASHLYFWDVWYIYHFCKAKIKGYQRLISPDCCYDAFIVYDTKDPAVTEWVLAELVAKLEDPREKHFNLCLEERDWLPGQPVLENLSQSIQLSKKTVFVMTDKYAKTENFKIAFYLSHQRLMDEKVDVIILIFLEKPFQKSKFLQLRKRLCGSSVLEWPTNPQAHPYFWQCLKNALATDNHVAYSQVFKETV
As to the kind of experiment: TLR7 inhibition reporter assay (HEK-Blue, SEAP). As to conditions: HEK-Blue cells overexpressing human TLR7, ligand gardiquimod 2.5 μM, 22 hour incubation. The gist of the method:
as §1

Assay [3] concerns the target T3, human TLR8 (Homo sapiens, UniProt Q9NR97).
T3 construct: host or cells: HEK-Blue cells
T3 sequence (Q9NR97 27-1041): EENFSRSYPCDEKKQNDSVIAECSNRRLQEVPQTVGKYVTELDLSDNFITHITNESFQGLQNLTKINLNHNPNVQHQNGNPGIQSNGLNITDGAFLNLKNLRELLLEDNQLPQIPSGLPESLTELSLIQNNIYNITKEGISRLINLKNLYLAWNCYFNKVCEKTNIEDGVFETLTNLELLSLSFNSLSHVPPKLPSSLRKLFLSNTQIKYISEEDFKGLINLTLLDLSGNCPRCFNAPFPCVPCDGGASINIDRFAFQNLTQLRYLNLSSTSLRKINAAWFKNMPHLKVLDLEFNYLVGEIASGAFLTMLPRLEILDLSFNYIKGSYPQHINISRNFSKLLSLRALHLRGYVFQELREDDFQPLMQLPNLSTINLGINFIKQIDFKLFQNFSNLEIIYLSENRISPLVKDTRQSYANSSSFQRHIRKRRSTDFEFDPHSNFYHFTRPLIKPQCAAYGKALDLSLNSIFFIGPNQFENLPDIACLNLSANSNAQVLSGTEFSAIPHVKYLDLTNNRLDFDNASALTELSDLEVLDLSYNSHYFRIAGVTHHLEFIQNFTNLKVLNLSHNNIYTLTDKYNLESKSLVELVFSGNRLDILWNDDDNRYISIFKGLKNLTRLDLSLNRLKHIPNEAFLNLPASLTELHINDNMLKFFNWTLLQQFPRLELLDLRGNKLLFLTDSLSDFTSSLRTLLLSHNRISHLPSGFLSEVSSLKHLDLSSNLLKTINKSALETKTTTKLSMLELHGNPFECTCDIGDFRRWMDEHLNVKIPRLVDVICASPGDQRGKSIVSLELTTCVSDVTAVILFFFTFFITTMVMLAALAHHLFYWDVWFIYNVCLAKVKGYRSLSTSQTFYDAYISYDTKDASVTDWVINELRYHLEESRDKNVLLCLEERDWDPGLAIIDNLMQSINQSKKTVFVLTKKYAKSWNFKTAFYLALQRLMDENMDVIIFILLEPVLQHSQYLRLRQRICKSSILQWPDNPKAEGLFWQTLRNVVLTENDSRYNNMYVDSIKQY
As to the kind of experiment: TLR8 inhibition reporter assay (HEK-Blue, SEAP). As to conditions: HEK-Blue cells overexpressing human TLR8, ligand R848 14.25 μM, 22 hour incubation. The gist of the method: as §1

Turning to `Cc1cc(-c2ccc(N3CCN(C(C)C)CC3)cc2)nc2c1nc(-c1ccc(S(C)(=O)=O)cc1)n2C` [Example 7, 5-(4-(4-isopropylpiperazin-1-yl)phenyl)-3,7-dimethyl-2-(4-(methylsulfonyl)phenyl)-3H-imidazo[4,5-b]pyridine], the concentration for half-maximal inhibition (IC50) in assay [1] was 1.2 µM; in assay [2], 29 µM; in assay [3], above 50 µM.

One may read the IC50 as the point on the concentration scale where inhibition reaches its midpoint. A higher IC50 goes with lower potency.
